Experimental data: US20160257651A1, “NOVEL COMPOUND WITH ANTIBACTERIAL ACTIVITY” (priority 2013, published 2016)
In brackets after ≈: the same amount, converted by molar mass. Where two headings read alike, the source gives them in different places.

Experiments:
[1] = tested on: E. coli strain 1708 plus PABN; test: Antibacterial activity against Escherichia coli in combination with efflux pump inhibitor PAβN; conditions: E coli plus PABN 40 mg/L, strain 1708, Quinolone Res
Description: (§9) The numerical values in the tables indicate MIC (mg/L), Res means resistant bacterium, and Sus means susceptible bacterium.
(§10) Antibacterial activities against Escherichia coli of the compounds shown Table 19 were examined by the following method.
(§11) After completion of the culture, the cells were suspended in fresh TBS to prepare a cell suspension showing an absorbance of 0.3 at 578 nm.

[2] = tested on: E. coli strain 1709 plus PABN; test: as above; conditions: E coli plus PABN 40 mg/L, strain 1709, Quinolone Sus
Description: as §9, §10, §11

E. coli strain 1708 = test: Antibacterial activity against Escherichia coli
Description: as §9, §10, §11

S. aureus Mu50 = test: microbe, parasite or virus in culture; assay type: cell-based, Staphylococcus aureus; conditions: for MIC: S. aureus Mu50, quinolone-resistant MRSA, ParC S80F, GyrA S84L; for MIC ratio (Mu50 MIC/FDA209P MIC): MIC for S. aureus Mu50 / MIC for S. aureus FDA209P
Protocol: (§1) Then, the cell suspension was diluted 500 times with CAMHB mentioned above.

[3] = tested on: S. aureus FDA209P (ATCC 6538P); test: microbe, parasite or virus in culture; assay type: cell-based, Staphylococcus aureus; conditions: quinolone-susceptible MSSA, ParC 80S, GyrA 84S
Protocol: as §1

E. coli strain 1709 = test: Antibacterial activity against Escherichia coli
Description: as §9, §10, §11

E. faecium NCTC12202 = test: MIC against Enterococcus bacteria; assay type: cell-based, Enterococcus faecium
Protocol: (§2) Antibacterial activities of the compound J-131CP against Enterococcus bacteria (Enterococcus faecium and Enterococcus faecalis) were examined by the following methods.
(§3) The compound J-131CP and quinolones were prepared in the same manner as that of Test Example 1-1.
(§4) Cell suspensions were prepared in the same manner as that of Test Example 1-1 described in the section of measurement of MIC in Test Example 1-1, except that the Enterococcus bacterium strains mentioned in Table 8 were used instead of Staphylococcus aureus, and MICs of the compound J-131CP and quinolones as control were determined for the strains in the same manner as that of Test Example 1-1 described in the section of measurement of MIC in Test Example 1-1. In Table 8, the amino acid substitution mutations in QRDR of the strains are underlined.

E. faecium RPR2 = test: MIC against Enterococcus bacteria; assay type: cell-based, Enterococcus faecium
Protocol: as §2, §3, §4

S. pneumoniae KBSP11 = test: MIC against pneumococcus, CAMHB with 5 mass % LHB; assay type: cell-based, Streptococcus pneumoniae
Protocol: (§5) The S. pneumoniae strains used for this test belong to any one of the categories of penicillin-susceptible pneumococcus (penicillin-susceptible Streptococcus pneumoniae, PSSP), penicillin-intermediate pneumococcus (penicillin-intermediate Streptococcus pneumoniae, PISP), and penicillin-resistant pneumococcus (penicillin-resistant Streptococcus pneumoniae, PRSP).
(§6) The lysed horse blood was prepared by adding sterilized water to horse sterile defibered blood (produced by Nippon Bio-Supp. Center) at a ratio of 1:1, subjecting the mixture to freezing and thawing 5 times, then centrifuging the mixture twice at 10,000 rpm for 20 minutes, and filtering the supernatant through a filter.
(§7) The S. pneumoniae strains mentioned in Table 11 were each cultured overnight at 37° C. on a blood agar medium as stationary culture. The blood agar medium was prepared by adding 5 mass % ovine sterile defibered blood (produced by Nippon Bio-Supp. Center) to a heart infusion agar medium (produced by EIKEN CHEMICAL). Each S. pneumoniae strain cultured overnight at 37° C. as stationary culture was further subcultured overnight at 37° C. on fresh blood agar medium as stationary culture. After completion of the culture, cells of each pneumococcus strain were collected with a swab, and suspended in physiological saline, and the suspension was adjusted with physiological saline to show absorbance of 0.08 to 0.13 at 625 nm as measured with an absorbance meter (produced by Amersham), and further diluted 200 times with CAMHB containing 5 mass % LHB.
(§8) In Table 11, the amino acid substitution mutations in QRDR of the strains are underlined.

S. pneumoniae BCLSP37 = test: MIC against pneumococcus, CAMHB with 5 mass % LHB; assay type: cell-based, Streptococcus pneumoniae; conditions: quinolone-resistant, ParC 79Phe, GyrA 85Lys
Protocol: as §5, §6, §7, §8

E. faecalis NCTC12201 = test: MIC against Enterococcus bacteria; assay type: cell-based; conditions: quinolone-susceptible
Protocol: as §2, §3, §4

E. faecalis 36-15722 = test: MIC against Enterococcus bacteria; assay type: cell-based, Enterococcus faecalis; conditions: E. faecalis 36-15722, quinolone-resistant, ParC 80Ile, GyrA 84Ile
Protocol: as §2, §3, §4

[4] = Staphylococcus aureus, ATCC 6538P / FDA209P / MSSA, read-out: MIC
[5] = Enterococcus faecium, NCTC 12202 / VRE
[6] = Streptococcus pneumoniae, BCLSP37, S. pneumoniae BCLSP37, PSSP, read-out: MIC
[7] = Enterococcus faecalis, NCTC 12201 / VRE
[8] = Enterococcus faecalis, 3615722, read-out: MIC

SMILES | MIC [1] [µg/mL] | MIC [2] | MIC (E. coli strain 1708) [µg/mL] | MIC (S. aureus Mu50; Staphylococcus aureus, MRSA) [µg/mL] | MIC [3, 4] [µg/mL] | MIC (E. coli strain 1709) [µg/mL] | MIC (E. faecium NCTC12202; [5]) [µg/mL] | MIC (E. faecium RPR2; Enterococcus faecium, RPR2) [µg/mL] | MIC (S. pneumoniae KBSP11; Streptococcus pneumoniae, PRSP) [µg/mL] | MIC (S. pneumoniae BCLSP37; [6]) [µg/mL] | MIC (E. faecalis NCTC12201; [7]) [µg/mL] | MIC (E. faecalis 36-15722; [8]) [µg/mL] | MIC ratio (Mu50 MIC/FDA209P MIC) (S. aureus Mu50) | other results
O=c1cc(CO)c2cc(F)c(-c3ccccc3)cc2n1C1CC1 [J-168] | 0.5 | ≦0.06 mg/L | 128 (≈ 414 µM) | 2 (≈ 6.47 µM) | 2 (≈ 6.47 µM) | 16 (≈ 51.7 µM) |  |  |  |  |  |  |  | 
NCc1cc(=O)n(C2CC2)c2cc(-c3ccc(O)cc3)c(F)cc12 [J-139, 4-(aminomethyl)-1-cyclopropyl-6-fluoro-7-(4-hydroxyphenyl)hydroquinolin-2-one] |  |  |  | 0.5 (≈ 1.54 µM) | 0.5 (≈ 1.54 µM) |  | 8 (≈ 24.7 µM) | 8 (≈ 24.7 µM) | 1 (≈ 3.08 µM) | 4 (≈ 12.3 µM) | 1 (≈ 3.08 µM) | 4 (≈ 12.3 µM) | 1 | 
O=c1cc(CO)c2cc(F)c(-c3ccc(O)c(O)c3)cc2n1C1CC1 [J-176] |  |  | 128 (≈ 375 µM) | 1 (≈ 2.93 µM) | 2 (≈ 5.86 µM) | 32 (≈ 93.7 µM) | 8 (≈ 23.4 µM) | 4 (≈ 11.7 µM) | 4 (≈ 11.7 µM) | 8 (≈ 23.4 µM) | 2 (≈ 5.86 µM) | 2 (≈ 5.86 µM) |  | 
CC(O)c1cc(=O)n(C2CC2)c2cc(-c3ccc4c(c3)CNC4C)c(F)cc12 (stereo not shown) [J-144M] |  |  | 128 (≈ 338 µM) | 4 (≈ 10.6 µM) | 0.5 (≈ 1.32 µM) | 4 (≈ 10.6 µM) |  |  |  |  | 1 (≈ 2.64 µM) | 2 (≈ 5.28 µM) |  | 
O=c1cc(CO)c2cc(F)c(-c3ccc(O)cc3)c(Cl)c2n1C1CC1 [J-161] | 1 | 0.13 µg/mL | 128 (≈ 356 µM) | 0.5 (≈ 1.39 µM) | 0.25 (≈ 0.695 µM) | 16 (≈ 44.5 µM) | 16 (≈ 44.5 µM) | 8 (≈ 22.2 µM) | 2 (≈ 5.56 µM) | 4 (≈ 11.1 µM) | 1 (≈ 2.78 µM) | 1 (≈ 2.78 µM) |  | 
CC1NCc2cc(-c3cc4c(cc3F)c(CO)cc(=O)n4C3CC3)ccc21 (stereo not shown) [J-144, 1-cyclopropyl-6-fluoro-4-(hydroxymethyl)-7-(1-methylisoindolin-5-yl)hydroquinolin-2-one] |  |  |  | 1 (≈ 2.74 µM) | 0.5 (≈ 1.37 µM) |  | 8 (≈ 22 µM) | 4 (≈ 11 µM) | 0.25 (≈ 0.686 µM) | 0.5 (≈ 1.37 µM) | 0.5 (≈ 1.37 µM) | 0.5 (≈ 1.37 µM) | 2 | 
O=c1cc(CO)c2cc(F)c(-c3ccc(O)cc3)c(F)c2n1C1CC1 [J-155] | 0.5 | ≦0.06 mg/L | 128 (≈ 373 µM) | 0.13 (≈ 0.379 µM) | 0.25 (≈ 0.728 µM) | 8 (≈ 23.3 µM) | 16 (≈ 46.6 µM) | 8 (≈ 23.3 µM) | 12 (≈ 35 µM) | 1 (≈ 2.91 µM) | 1 (≈ 2.91 µM) | 1 (≈ 2.91 µM) |  | 
Nc1ccc(-c2cc3c(cc2F)c(CO)cc(=O)n3C2CC2)cc1 [J-132CP, 7-(4-aminophenyl)-1-cyclopropyl-6-fluoro-4-(hydroxymethyl)hydroquinolin-2-one] |  |  |  | 0.5 (≈ 1.54 µM) | 0.5 (≈ 1.54 µM) |  | 16 (≈ 49.3 µM) | 8 (≈ 24.7 µM) | 2 (≈ 6.17 µM) | 4 (≈ 12.3 µM) | 2 (≈ 6.17 µM) | 2 (≈ 6.17 µM) | 1 | 
COc1c(-c2ccc(O)cc2)c(F)cc2c(CO)cc(=O)n(C3CC3)c12 [J-156] | 2 | 0.1 µg/mL | 128 (≈ 360 µM) | 0.5 (≈ 1.41 µM) | 0.5 (≈ 1.41 µM) | 128 (≈ 360 µM) |  |  | 4 (≈ 11.3 µM) | 2 (≈ 5.63 µM) | 2 (≈ 5.63 µM) | 2 (≈ 5.63 µM) |  | 
Nc1ccc(-c2cc3c(cc2F)c(CO)cc(=O)n3C2CC2)cc1 [J-166] | 0.5 | ≦0.06 mg/L | 128 (≈ 395 µM) |  |  | 8 (≈ 24.7 µM) |  |  |  |  |  |  |  | MIC (E. faecium NCTC12202; E. faecium NCTC12202, VRE, quinolone-susceptible): 16 µg/mL (≈ 49.3 µM); MIC (E. faecium RPR2; E. faecium RPR2, quinolone-resistant, ParC 82Ile, GyrA 84Ile 88Lys): 8 µg/mL (≈ 24.7 µM); MIC (S. pneumoniae KBSP11; S. pneumoniae KBSP11, PRSP, quinolone-susceptible): 2 µg/mL (≈ 6.17 µM); MIC (S. pneumoniae BCLSP37; S. pneumoniae BCLSP37, PSSP): 2 µg/mL (≈ 6.17 µM); MIC (E. faecalis NCTC12201; E. faecalis NCTC12201, VRE): 1 µg/mL (≈ 3.08 µM); MIC (E. faecalis 36-15722): 2 µg/mL (≈ 6.17 µM); MIC (S. aureus Mu50): 1 µg/mL (≈ 3.08 µM); MIC [3]: 1 µg/mL (≈ 3.08 µM)
CC1COc2c(-c3ccc(O)cc3)c(F)cc3c(CO)cc(=O)n1c23 (stereo not shown) [J-149, 9-fluoro-7-(hydroxymethyl)-10-(4-hydroxyphenyl)-3-methyl-2H-[1,4]oxazino[2,3,4-ij]quinolin-5(3H)-one] |  |  |  | 0.5 (≈ 1.46 µM) | 0.5 (≈ 1.46 µM) |  | 128 (≈ 375 µM) | 16 (≈ 46.9 µM) | 4 (≈ 11.7 µM) | 8 (≈ 23.4 µM) | 0.5 (≈ 1.46 µM) | 0.5 (≈ 1.46 µM) | 1 | 
O=c1cc(CO)c2ccc(-c3ccc(O)cc3)c(F)c2n1C1CC1 [J-154, 1-cyclopropyl-8-fluoro-4-(hydroxymethyl)-7-(4-hydroxyphenyl)hydroquinolin-2-one] |  |  |  | 0.25 (≈ 0.768 µM) | 0.5 (≈ 1.54 µM) |  | 16 (≈ 49.2 µM) | 8 (≈ 24.6 µM) | 8 (≈ 24.6 µM) | 8 (≈ 24.6 µM) | 4 (≈ 12.3 µM) | 2 (≈ 6.15 µM) | 0.5 | 
NOCc1cc(=O)n(C2CC2)c2cc(-c3ccc(O)cc3)c(F)cc12 [J-174] | 4 | 0.5 µg/mL | 128 (≈ 376 µM) | 1 (≈ 2.94 µM) | 2 (≈ 5.88 µM) | 64 (≈ 188 µM) |  |  |  |  | 4 (≈ 11.8 µM) | 8 (≈ 23.5 µM) |  | 
